Laboratory results from patent US11401271B2, “Fused heterocyclic compound, pyrazole-ring-containing fused heterocyclic compound, agricultural composition containing thereof, and method of using the composition” (SOUTH CHINA AGRICULTURAL UNIVERSITY, priority 2017, dated 2022).
Like-named read-outs stand apart in the source and are kept apart here.

Assays:
Test in all cases: whole plant or invertebrate
Assay type in all cases: in vivo
Spodoptera exigua = details: for Spodoptera exigua Mortality (%) / Spodoptera exigua Mortality (%) 500 ppm: 500 ppm, 2nd-instar larvae, leaf immersion feeding; for Spodoptera exigua Mortality (%) 500 ppm: 24 hours; for mortality at 500 ppm: Spodoptera exigua, 24 h, read-out: Spodoptera exigua Mortality (%) 500 ppm
Method in brief: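 Cabbage leaf discs dipped 5 s in 500 ppm compound (0.05% Tween-80 aqueous), air-dried, fed to about 35 2nd-instar larvae at 28° C, three replicates. Deaths counted at 24 h; mortality corrected against Tween-80 control.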

Aphis craccivora = details: for Aphis craccivora Mortality (%) / Aphis craccivora Mortality (%) 500 ppm: 500 ppm, wingless adults; for Aphis craccivora Mortality (%): immersion 5 seconds, counted after 24 hours; for Aphis craccivora Mortality (%) 500 ppm: impregnation method, 24 hours; for mortality at 500 ppm: Aphis craccivora, 24 h, read-out: Aphis craccivora Mortality (%) 500 ppm
Method in brief: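 Wingless adults feeding on bean sprouts were dipped with the sprouts for 5 s in 500 ppm compound in aqueous 0.05% Tween-80, air-dried, then held at 23° C. Dead aphids counted after 24 h, triplicate, with 0.05% Tween-80 as control. Mortality (%) = (control live − treated live)/control live × 100.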

Plutella xylostella = details: for Plutella xylostella Mortality (%) / Plutella xylostella Mortality (%) 500 ppm: 500 ppm, 2nd-instar larvae, leaf immersion feeding; for mortality at 500 ppm: Plutella xylostella, read-out: Plutella xylostella Mortality (%) 500 ppm
Method in brief: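 Cabbage leaf discs dipped 5 s in compound at 500 ppm (0.05% Tween-80 aqueous), air-dried, fed to about 35 2nd-instar larvae at 28° C., triplicate. Dead larvae counted after 24 h; mortality (%) corrected against Tween-80 control.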

Solenopsis invicta = details: water test tube poison-feeding; for Solenopsis invicta Mortality (%) 24 h / Solenopsis invicta Mortality (%) 72 h / Solenopsis invicta Mortality (%) 100 ppm 24 h / Solenopsis invicta Mortality (%) 100 ppm 72 h: 100 ppm; for mortality at 100 ppm: Solenopsis invicta
Method in brief: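 Fire ants fed compound by water test-tube poison-feeding at 100 ppm in aqueous 0.05% Tween-80/5% honey (from 10 g/L DMSO stock), kept at 25 °C. Live and dead ants counted at 24 and 72 h; mortality (%) calculated relative to live ants in the untreated control.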

[1] = 24 h, read-out: Solenopsis invicta Mortality (%) 100 ppm 24 h, 100 ppm, 24 h
[2] = 72 h, read-out: Solenopsis invicta Mortality (%) 100 ppm 72 h, 100 ppm, 72 h

Row | SMILES | Spodoptera exigua Mortality (%) (Spodoptera exigua) | Aphis craccivora Mortality (%) (Aphis craccivora) | Plutella xylostella Mortality (%) (Plutella xylostella) | Solenopsis invicta Mortality (%) 24 h (Solenopsis invicta; 24 h) [%] | Solenopsis invicta Mortality (%) 72 h (Solenopsis invicta; 72 h) [%] | also measured
1 | N#Cc1nn2c(c1[S+]([O-])C(F)(F)F)NC(CC(F)(F)F)c1cc(C(F)(F)F)cc(Cl)c1-2 (stereo not drawn) [d-85] | 100 | 100 | 100 | 30 | 100 | 
2 | COC(=O)C1Nc2c([S+]([O-])C(F)(F)F)c(C(F)(F)F)nn2-c2ncc(C(F)(F)F)cc21 (stereo not drawn) [a-87] |  |  |  |  |  | Spodoptera exigua Mortality (%) 500 ppm (Spodoptera exigua): 100%; Aphis craccivora Mortality (%) 500 ppm (Aphis craccivora): 100%; Plutella xylostella Mortality (%) 500 ppm (Plutella xylostella): 96%; Solenopsis invicta Mortality (%) 100 ppm 24 h (Solenopsis invicta; 24 h): 20%; Solenopsis invicta Mortality (%) 100 ppm 72 h (Solenopsis invicta; 72 h): 97%
3 | C=CCN1c2c(C#N)c(SC)nn2-c2ccccc2C1(F)C(F)(F)F (stereo not drawn) [Compound A34] |  |  |  |  |  | mortality at 500 ppm (Spodoptera exigua): 100%; mortality at 500 ppm (Aphis craccivora): 100%; mortality at 500 ppm (Plutella xylostella): 96%; mortality at 100 ppm (Solenopsis invicta; [1]): 28%; mortality at 100 ppm (Solenopsis invicta; [2]): 97%
4 | COC(=O)C1(CC(C)=O)Nc2c([S+]([O-])C(F)(F)F)c(C#N)nn2-c2c(Cl)cc(C(F)(F)F)cc21 (stereo not drawn) [d-33] | 99 | 100 | 100 | 26 | 100 | 
5 | C=CC1Nc2c(Br)c(C#N)nn2-c2c(Cl)cc(C(F)(F)F)cc21 (stereo not drawn) [Compound C8] |  |  |  |  |  | mortality at 500 ppm (Spodoptera exigua): 85%; mortality at 500 ppm (Aphis craccivora): 95%; mortality at 500 ppm (Plutella xylostella): 91%; mortality at 100 ppm (Solenopsis invicta; [1]): 36%; mortality at 100 ppm (Solenopsis invicta; [2]): 92%
6 | N#CCC1(Cl)Nc2c([S+]([O-])C(F)(F)F)c(C#N)nn2-c2cncc(Cl)c21 (stereo not drawn) [b-47] | 85 | 100 | 95 | 18 | 90 | 
7 | C=CC1(C(F)(F)F)Nc2c(-c3cc(C)oc3C)c(C#N)nn2-c2c(Cl)cc(C(F)(F)F)cc21 (stereo not drawn) [Compound C12] |  |  |  |  |  | mortality at 500 ppm (Spodoptera exigua): 91%; mortality at 500 ppm (Aphis craccivora): 100%; mortality at 500 ppm (Plutella xylostella): 100%; mortality at 100 ppm (Solenopsis invicta; [1]): 18%; mortality at 100 ppm (Solenopsis invicta; [2]): 95%
8 | COC(=O)C1Nc2c([S+]([O-])C(F)(F)F)c(C#N)nn2-c2ncc(C(F)(F)F)cc21 (stereo not drawn) [a-64] |  |  |  |  |  | Spodoptera exigua Mortality (%) 500 ppm (Spodoptera exigua): 99%; Aphis craccivora Mortality (%) 500 ppm (Aphis craccivora): 100%; Plutella xylostella Mortality (%) 500 ppm (Plutella xylostella): 100%; Solenopsis invicta Mortality (%) 100 ppm 24 h (Solenopsis invicta; 24 h): 20%; Solenopsis invicta Mortality (%) 100 ppm 72 h (Solenopsis invicta; 72 h): 99%
9 | COC(=O)CC1(C(=O)OC)Nc2c([S+]([O-])C(F)(F)F)c(C#N)nn2-c2c1ccc(Cl)c2C(F)(F)F (stereo not drawn) [e-13] | 100 | 100 | 100 | 20 | 100 | 
10 | CNC1(CC#N)Nc2c([S+]([O-])C(F)(F)F)c(C#N)nn2-c2cncc(Cl)c21 (stereo not drawn) [b-43] | 80 | 89 | 89 | 19 | 90 | 
11 | CC[S+]([O-])c1c(C#N)nn2c1NC(CC(=O)OC)(C(=O)OC)c1cc(C(F)(F)F)cc(Cl)c1-2 (stereo not drawn) [d-14] | 89 | 100 | 90 | 24 | 100 | 
12 | COC(=O)CC1Nc2c(OC(F)(F)F)c(C#N)nn2-c2cncc(Cl)c21 (stereo not drawn) [b-111] | 100 | 100 | 100 | 24 | 100 | 
13 | N#CC1Nc2c([S+]([O-])C(F)(F)F)c(C(F)(F)F)nn2-c2ncc(C(F)(F)F)cc21 (stereo not drawn) [a-95] |  |  |  |  |  | Spodoptera exigua Mortality (%) 500 ppm (Spodoptera exigua): 89%; Aphis craccivora Mortality (%) 500 ppm (Aphis craccivora): 100%; Plutella xylostella Mortality (%) 500 ppm (Plutella xylostella): 96%; Solenopsis invicta Mortality (%) 100 ppm 24 h (Solenopsis invicta; 24 h): 21%; Solenopsis invicta Mortality (%) 100 ppm 72 h (Solenopsis invicta; 72 h): 92%
14 | N#Cc1nn2c(c1[S+]([O-])C(F)(F)F)NC(CBr)(C(=O)C(F)(F)F)c1cc(C(F)(F)F)cnc1-2 (stereo not drawn) [a-29] |  |  |  |  |  | Spodoptera exigua Mortality (%) 500 ppm (Spodoptera exigua): 91%; Aphis craccivora Mortality (%) 500 ppm (Aphis craccivora): 100%; Plutella xylostella Mortality (%) 500 ppm (Plutella xylostella): 100%; Solenopsis invicta Mortality (%) 100 ppm 24 h (Solenopsis invicta; 24 h): 14%; Solenopsis invicta Mortality (%) 100 ppm 72 h (Solenopsis invicta; 72 h): 96%
15 | [O-][S+](c1c(C(F)(F)F)nn2c1NC(Br)c1c(Cl)cncc1-2)C(F)(F)F (stereo not drawn) [b-104] | 96 | 100 | 96 | 20 | 96 | 
16 | O=C(CC1Nc2c([S+]([O-])C(F)(F)F)c(C(F)(F)F)nn2-c2c(Cl)cc(C(F)(F)F)cc21)C(F)(F)F (stereo not drawn) [d-103] | 98 | 100 | 100 | 26 | 93 | 
17 | N#Cc1nn2c(c1[S+]([O-])C(F)(F)F)NC(C#N)(C#N)c1cc(C(F)(F)F)cnc1-2 (stereo not drawn) [a-52] |  |  |  |  |  | Spodoptera exigua Mortality (%) 500 ppm (Spodoptera exigua): 89%; Aphis craccivora Mortality (%) 500 ppm (Aphis craccivora): 91%; Plutella xylostella Mortality (%) 500 ppm (Plutella xylostella): 100%; Solenopsis invicta Mortality (%) 100 ppm 24 h (Solenopsis invicta; 24 h): 20%; Solenopsis invicta Mortality (%) 100 ppm 72 h (Solenopsis invicta; 72 h): 89%
18 | N#Cc1nn2c(c1[S+]([O-])C(F)(F)F)NC(Cc1ccccc1)(C(=O)C(F)(F)F)c1c(Cl)cc(C(F)(F)F)cc1-2 (stereo not drawn) [c-36] | 90 | 95 | 92 | 21 | 100 | 
19 | CC(=O)CC1(C(C)=O)Nc2c([S+]([O-])C(F)(F)F)c(C#N)nn2-c2c(Cl)cc(C(F)(F)F)cc21 (stereo not drawn) [d-46] | 90 | 100 | 95 | 14 | 90 | 
20 | CC(C)(C)Nc1c(C#N)nn2c1NC(C)(C)c1ccccc1-2 [Compound A16] |  |  |  |  |  | mortality at 500 ppm (Spodoptera exigua): 100%; mortality at 500 ppm (Aphis craccivora): 100%; mortality at 500 ppm (Plutella xylostella): 86%; mortality at 100 ppm (Solenopsis invicta; [1]): 20%; mortality at 100 ppm (Solenopsis invicta; [2]): 87%
21 | N#Cc1nn2c(c1[S+]([O-])C(F)(F)F)NC(Cl)c1cc(C(F)(F)F)cnc1-2 (stereo not drawn) [a-80] |  |  |  |  |  | Spodoptera exigua Mortality (%) 500 ppm (Spodoptera exigua): 85%; Aphis craccivora Mortality (%) 500 ppm (Aphis craccivora): 100%; Plutella xylostella Mortality (%) 500 ppm (Plutella xylostella): 91%; Solenopsis invicta Mortality (%) 100 ppm 24 h (Solenopsis invicta; 24 h): 10%; Solenopsis invicta Mortality (%) 100 ppm 72 h (Solenopsis invicta; 72 h): 100%
22 | CC(=O)C1(CC(F)(F)F)Nc2c([S+]([O-])C(F)(F)F)c(C#N)nn2-c2ncc(C(F)(F)F)cc21 (stereo not drawn) [a-36] |  |  |  |  |  | Spodoptera exigua Mortality (%) 500 ppm (Spodoptera exigua): 96%; Aphis craccivora Mortality (%) 500 ppm (Aphis craccivora): 100%; Plutella xylostella Mortality (%) 500 ppm (Plutella xylostella): 100%; Solenopsis invicta Mortality (%) 100 ppm 24 h (Solenopsis invicta; 24 h): 14%; Solenopsis invicta Mortality (%) 100 ppm 72 h (Solenopsis invicta; 72 h): 91%
23 | CNC(=O)c1nn2c(c1Br)NC(C)(C)c1ccccc1-2 [Compound A6] |  |  |  |  |  | mortality at 500 ppm (Spodoptera exigua): 100%; mortality at 500 ppm (Aphis craccivora): 100%; mortality at 500 ppm (Plutella xylostella): 100%; mortality at 100 ppm (Solenopsis invicta; [1]): 44%; mortality at 100 ppm (Solenopsis invicta; [2]): 100%
24 | N#Cc1nn2c(c1[S+]([O-])C(F)(F)F)NC(C#N)(CC(F)(F)F)c1cc(C(F)(F)F)cc(Cl)c1-2 (stereo not drawn) [d-65] | 100 | 100 | 100 | 24 | 90 | 
